We go through four molecules from patent US5795561A, “Radioiodinated phospholipid ether analogues” (The Board of Regents of the University of Michigan, priority 1994, dated 1998).

Data set [1] in a line: Tissue distribution of radioactivity after IV administration in normal (control) rats (Tables 1-4). It is filed as in vivo, female Sprague Dawley rats. The note with it: rat, 125I-labelled; for tissue uptake at 6 h: 6 hours after IV, N = 3, mean ± standard error; for tissue uptake at 24 h: 24 hours after IV. As for the experimental part: (§1) Radiolabelled compounds 1-[12-(m-iodophenyl)-dodecyl]-2-methyl-rac-glycero-3-phosphocholine (ET-12IP-OMe; Example 2, compound 18) and 1-[12-(m-iodophenyl)-dodecyl]-propanediol-3-phosphocholine (ET-12IP-OH; Example 3, compound 24) were prepared and administered to two sets of female Sprague Dawley rats: normal rats (control) and rats bearing tumors resulting from Walker 256 sarcoma cells which had been implanted into the thigh. The labelled compounds (5-35 μCi ^125 I) were administered intravenously in a 2% Tween 20-saline vehicle. At various times following administration the animals were sacrificed, and selected tissue samples were removed. The tissue samples were weighed and placed in cellulose acetate capsules. The radioactivity was then counted (85% efficiency) using a well scintillation counter (Searle 1185).

A short description of data set [2]: Tissue distribution 24 hours after I.V. administration to rats bearing the Walker-256 carcinosarcoma (Tables 5 and 6). It is filed as in vivo, Sprague-Dawley rats. The settings on record: rat, iv, tumor-bearing rats. The procedure: Tissue distribution studies were conducted with the alkyl lysophospholipid analogues of general Formula II.
Data set [3] is described as follows: Tissue distribution of radioactivity after IV administration in rats bearing Walker 256 sarcoma (Tables 1-4). It is filed as in vivo, female Sprague Dawley rats. The note with it: rat, 125I-labelled; for tissue uptake at 6 h: 6 hours after IV; for tissue uptake at 24 h: 24 hours after IV. The procedure:
as §1

The test system of data set [4] is inflammatory granuloma lesions. The settings on record: rat, in vivo.
From the text: (§2) Both types of lesions were located in the thigh of the rat. Tumor bearing lesions were produced by implantation of Walker 256 sarcoma cells and inflammatory granuloma lesions were developed using carrageenan irritation in accordance with the method described by Atkinson, et al., Agents and Actions, Vol. 8, pages 263-267, 1978.
Data set [5] has as its system Walker 256 sarcoma. The settings on record: rat, in vivo.
From the text: as §2
In data set [6] the test system is Walker 256 sarcoma. As to the kind of experiment: Tissue distribution of radioactivity after IV administration in rats bearing Walker 256 sarcoma (Tables 1-4). Format: in vivo, female Sprague Dawley rats. The procedure:
as §1

Data set [7] deals with inflammatory granuloma lesions. The data set is described as follows: Gamma-camera scintigraphy in rats bearing inflammatory lesions (granuloma).
From the text: as §2
Data set [8] deals with Walker 256 sarcoma. The data set is described as follows: Gamma-camera scintigraphy in tumor-bearing rats.
From the text: as §2
The next data set has as its system tumor. The note with it: background; cited from earlier work.
Data set [9] concerns human HTB 77 ovarian adenocarcinoma, NCI 69 human small cell carcinoma, and human HTB 63 melanoma. As to the kind of experiment: In vivo tumor localization and scintigraphy in athymic nude mice with subcutaneous human tumors (Example 8). The settings on record: similar studies to those with compound 50 (rat and athymic mouse models).
The mark [10] stands for this setting: blood, read-out: Radioactivity in blood.
Setting [11] is: kidney, read-out: Radioactivity in kidney.
Setting [12] is: liver, read-out: Radioactivity in liver.
Where [13] appears, read: lung, read-out: Radioactivity in lung.
The mark [14] stands for this setting: muscle, read-out: Radioactivity in muscle.
The mark [15] stands for this setting: adrenal, read-out: Distribution of radioactivity: adrenal.
Setting [16] is: blood, read-out: Distribution of radioactivity: blood.
[17] abbreviates: read-out: Distribution of radioactivity: tumor.
Where [18] appears, read: kidney, read-out: Distribution of radioactivity: kidney.
Setting [19] is: liver, read-out: Distribution of radioactivity: liver.
[20] abbreviates: lung, read-out: Distribution of radioactivity: lung.
Setting [21] is: muscle, read-out: Distribution of radioactivity: muscle.
The mark [22] stands for this setting: thyroid, read-out: Distribution of radioactivity: thyroid.
[23] abbreviates: blood, tumor-bearing rats, N = 3, mean ± standard error, read-out: Radioactivity in blood.
Where [24] appears, read: kidney, tumor-bearing rats, N = 3, mean ± standard error, read-out: Radioactivity in kidney.
[25] abbreviates: liver, tumor-bearing rats, N = 3, mean ± standard error, read-out: Radioactivity in liver.
The mark [26] stands for this setting: lung, tumor-bearing rats, N = 3, mean ± standard error, read-out: Radioactivity in lung.
Setting [27] is: muscle, tumor-bearing rats, N = 3, mean ± standard error, read-out: Radioactivity in muscle.
Setting [28] is: walker 256 tumor, Walker 256 sarcoma implanted in thigh, N = 3, mean ± standard error, read-out: Radioactivity in tumor.
Setting [29] is: whole body scans 24 hours after administration.

Where two headings read alike, the source gives them in different places.

Turning to `C[N+](C)(C)CCOP(=O)([O-])OCCCOCCCCCCCCCCCCc1cccc([125I])c1` [ET-12IP-H, 1-[12-(m-iodophenyl)-dodecyl]-propanediol-3-phosphocholine], the tissue uptake at 6 h in data set [1] (setting [10]) was 0.475 ± 0.078 %ID/g; in [1] (setting [11]) it was 2.6 ± 0.107 %ID/g; in [1] (setting [12]), 1.35 ± 0.047 %ID/g; in data set [1] (setting [13]), 0.816 ± 0.031 %ID/g; in data set [1] (setting [14]), 0.083 ± 0.009 %ID/g; in [3] (setting [23]), 0.239 ± 0.024 %ID/g. The tissue uptake at 6 h in [3] (setting [24]) turned out to be 1.77 ± 0.108 %ID/g; in data set [3] (setting [25]), 0.892 ± 0.083 %ID/g; in [3] (setting [26]), 0.525 %ID/g; in data set [3] (setting [27]) it was 0.05 ± 0.009 %ID/g; in [3] (setting [28]), 1.03 ± 0.158 %ID/g. Moreover, the tissue uptake at 24 h in [1] (blood, N = 3, mean ± standard error (Table 4), read-out: Radioactivity in blood) was found to be 0.047 ± 0.035 %ID/g; in data set [1] (kidney, N = 3, mean ± standard error (Table 4), read-out: Radioactivity in kidney) it was 0.257 ± 0.01 %ID/g; in data set [1] (liver, N = 3, mean ± standard error (Table 4), read-out: Radioactivity in liver) it was 0.142 ± 0.033 %ID/g; in data set [1] (lung, N = 3, mean ± standard error (Table 4), read-out: Radioactivity in lung) it was 0.129 ± 0.013 %ID/g; in [1] (muscle, N = 3, mean ± standard error (Table 4), read-out: Radioactivity in muscle), 0.025 ± 0.001 %ID/g; in data set [2] (setting [15]), 0.274 %ID/g. In addition, the tissue uptake at 24 h in data set [2] (setting [16]) amounted to 0.036 %ID/g; in data set [2] (setting [17]), 0.463 %ID/g; in data set [2] (setting [18]), 0.235 %ID/g; in data set [2] (setting [19]) it was 0.139 %ID/g; in [2] (setting [20]), 0.105 %ID/g; in [2] (setting [21]) it was 0.014 %ID/g. Also, the tissue uptake at 24 h in data set [2] (setting [22]) came to 8.45 %ID/g; in data set [3] (blood, tumor-bearing rats, N = 3, mean ± standard error (Table 4), read-out: Radioactivity in blood), 0.036 ± 0.004 %ID/g; in [3] (kidney, tumor-bearing rats, N = 3, mean ± standard error (Table 4), read-out: Radioactivity in kidney) it was 0.235 ± 0.018 %ID/g; in data set [3] (liver, tumor-bearing rats, N = 3, mean ± standard error (Table 4), read-out: Radioactivity in liver), 0.139 ± 0.01 %ID/g; in data set [3] (lung, tumor-bearing rats, N = 3, mean ± standard error (Table 4), read-out: Radioactivity in lung), 0.105 %ID/g; in data set [3] (muscle, tumor-bearing rats, N = 3, mean ± standard error (Table 4), read-out: Radioactivity in muscle), 0.014 ± 0.001 %ID/g. Moreover, the tissue uptake at 24 h in data set [3] (walker 256 tumor, Walker 256 sarcoma implanted in thigh, N = 3, mean ± standard error (Table 4), read-out: Radioactivity in tumor) came to 0.463 ± 0.063 %ID/g.
For `COC(COCCCCCCCCCCCCc1cccc([125I])c1)COP(=O)([O-])OCC[N+](C)(C)C` (racemic) [ET-12IP-OMe, 1-[12-(m-iodophenyl)-dodecyl]-2-methyl-rac-glycero-3-phosphocholine], the “localization in the inflammatory lesion” value in [4] is listed as “little activity was associated with this area”. Besides, the localization in tumor entry in the data set with Walker 256 sarcoma [5] was “capable of localizing in the tumor”. The tissue uptake at 6 h in data set [1] (setting [10]) worked out at 0.105 ± 0.009 %ID/g; in data set [1] (setting [11]), 0.65 ± 0.114 %ID/g; in data set [1] (setting [12]), 1.74 ± 0.125 %ID/g; in data set [1] (setting [13]), 0.356 ± 0.012 %ID/g; in [1] (setting [14]), 0.023 %ID/g; in data set [3] (setting [23]), 0.231 ± 0.008 %ID/g. For the same molecule, the tissue uptake at 6 h in data set [3] (setting [24]) was 1.31 ± 0.091 %ID/g; in data set [3] (setting [25]) it was 3.59 ± 0.189 %ID/g; in [3] (setting [26]) it was 0.873 ± 0.081 %ID/g; in [3] (setting [27]), 0.046 ± 0.001 %ID/g; in data set [3] (setting [28]), 1.12 ± 0.024 %ID/g. In addition, the tissue uptake at 24 h was 0.085 ± 0.001 %ID/g in data set [1] (blood, N = 4, mean ± standard error, read-out: Radioactivity in blood); 0.426 ± 0.03 %ID/g in data set [1] (kidney, N = 4, mean ± standard error, read-out: Radioactivity in kidney); 0.675 ± 0.02 %ID/g in data set [1] (liver, N = 4, mean ± standard error, read-out: Radioactivity in liver); 0.218 ± 0.01 %ID/g in data set [1] (lung, N = 4, mean ± standard error, read-out: Radioactivity in lung); 0.034 ± 0.004 %ID/g in [1] (muscle, N = 4, mean ± standard error, read-out: Radioactivity in muscle); 0.436 %ID/g in data set [2] (setting [15]). Moreover, the tissue uptake at 24 h was 0.096 %ID/g in data set [2] (setting [16]); 1.11 %ID/g in data set [2] (setting [17]); 0.463 %ID/g in data set [2] (setting [18]); 0.743 %ID/g in data set [2] (setting [19]); 0.299 %ID/g in data set [2] (setting [20]); 0.027 %ID/g in data set [2] (setting [21]). Also, the tissue uptake at 24 h in data set [2] (setting [22]) came out at 7.34 %ID/g; in [3] (setting [23]) it was 0.096 ± 0.023 %ID/g; in data set [3] (setting [24]) it was 0.463 ± 0.111 %ID/g; in data set [3] (setting [25]) it was 0.743 ± 0.105 %ID/g; in [3] (setting [26]) it was 0.299 ± 0.017 %ID/g; in data set [3] (setting [27]) it was 0.027 ± 0.006 %ID/g. In data set [3] (setting [28]), the tissue uptake at 24 h turned out to be 1.11 ± 0.016 %ID/g. For the same molecule, the “clearance of radioactivity from tissues” value in the data set on Walker 256 sarcoma [6] (by 24 hours) is on record as “radioactivity had cleared significantly from all of the tissues except for tumor tissue”. In the data set on Walker 256 sarcoma [6] (six hours following administration), the “tissues with the highest concentrations of radioactivity” value is “liver, kidney, and tumor tissues exhibiting the highest concentrations”.
`O=C([O-])CC(O)(CC(=O)[O-])C(=O)[O-].[67Ga+3]` [gallium-67 citrate]: the “accumulation in granuloma (inflammatory lesion), scintigraphic scan” value in data set [7] (24 hours after administration, for ET-12IP-OMe in relation to liver) is listed as “high accumulation”. Also, the “accumulation in liver (scintigraphic scan)” value in data set [7] (granuloma-bearing rat, 24 hours after administration) is on record as “high accumulation”. Also, the “localization in the inflammatory lesion” value in data set [7] (setting [29]) is on record as “found to localize in the inflammatory lesion”. For the same molecule, the “accumulation in tumor (scintigraphic scan)” value in the data set on Walker 256 sarcoma [8] (24 hours after administration) is “high accumulation”. Besides, the “accumulation in liver (scintigraphic scan)” value with Walker 256 sarcoma [8] (tumor-bearing rat, 24 hours after administration) is recorded as “low accumulation”. Also, the localization in tumor result in the data set with Walker 256 sarcoma [8] (setting [29]) is recorded as “capable of localizing in the tumor”. In addition, in the data set with tumor, the “accumulation in inflammatory lesions” value is listed as “also accumulates in a variety of other inflammatory lesions”; the “alteration of distribution by steroidal and antineoplastic drugs” value was “can be altered by a variety of steroidal and antineoplastic drugs”; the localization in tumor result is given as “will localize, or accumulate, in a tumor”.
In the case of `CCCCCCCCCCCCCCCCOP(=O)([O-])OCC[N+](C)(C)Cc1cccc(I)c1` [Compound 60, hexadecyl-2-[N,N-dimethyl-N-(m-iodobenzyl)-ammonium] ethylphosphate], the “localization in tumor tissues” value in data set [9] is reported as “exhibited localization in tumor tissues”.
